Data as given in patent US20020065314A1, “COMPOSITIONS AND METHOD FOR STIMULATING HAIR GROWTH” (priority 1995, published 2002).
“Also recorded” adds a separate entry of the source. Like-named read-outs stand apart in the source and are kept apart here.

What was measured:
NIH/3T3 fibroblasts = experiment: Fibroblast cell proliferation assay with extracts of treated skin; format: cell-based
Experimental: A single topical application of 20 mg of n-butyl cyanoacrylate was made to an area of shaved skin on the dorsum of strain C57BL/KsJ db/+ mice. At days 10 and 20 post-treatment, skin samples were excised from treated areas. Skin tissue was frozen in dry ice, minced, homogenized in ice-cold PBS, and centrifuged at 15,000 g for 30 minutes at 4° C. The protein concentration of supernatants was adjusted to 1.0 mg/ml by the BioRad assay procedure (BioRad Laboratories, Richmond, Calif.). Skin samples from untreated areas of the same strain were harvested and processed identically. Mouse serum albumin was prepared at a concentration of 1.0 mg/ml in PBS as a control. An aliquot of each supernatant extract was fractionated according to size with a nominal 30 kilo Dalton (kDa) cutoff, and the low molecular weight fraction (≦30 kDa) was included in the fibroblast cell proliferation assay, as follows.
The supernatant extracts from treated and untreated skin samples, and mouse serum albumin control, were added to a quartet of wells in a 96 well plate, and 2-fold serially diluted 11 times. NIH/3T3 fibroblasts (ex American Type Culture Collection, Rockville, Md.) were harvested at about 80% confluence, seeded into each well at a density of 5,000 cells per well, and supplemented with serum-free assay medium (QBSF 56, Quality Biological Inc., Gaithersburg, Md.). Cell proliferation was determined according to the protocol of the CellTitre 96 Non-Radioactive Cell Proliferation Assay (Promega, Madison, Wis.).

[1] = system: C57BL/KsJ db/+ and C57BL/KsJ db/db mice; experiment: Effect of isobutyl cyanoacrylate on hair growth, topical; format: in vivo, mouse; settings: C57BL/KsJ +/+, 10 μl cm^−2 topical
C57BL/KsJ db/+ mice [2] = experiment: Inhibition of n-butyl cyanoacrylate-stimulated hair growth by neutralizing antibodies; format: in vivo, mouse; settings: day 14, sites 2 and 3, 10 μl per site
Experimental: Forty mice of strain C57BL/KsJ db/+ eight weeks old were divided into four equal groups (A-D). The dorsal aspect of the mice were shaved, and five different sites on the dorsum were designated (sites 1-5). Each site was 5-6 mm^2. Animals of group A were treated topically at sites 1, 2 & 3 with n-butyl cyanoacrylate only (10 μl per site) formulated as Nexaband^R Liquid. Animals of group B were treated topically at sites 1, 2 & 3 with the same dose of n-butyl cyanoacrylate, but sites 1 and 3 subsequently received subcutaneous injections of either anti-TGF-β1 neutralizing antibody (1 μg per g of body weight) in PBS/0.1% BSA (at site 1), or PBS/0.1% BSA as a matched control (at site 3). Group C animals were treated as for Group B except that anti-EGF neutralizing antibody was injected at site 1 instead of anti-TGF-pi. […] Group D animals were shaved only and received no treatment.
Hair regeneration was documented by macroscopic observations supported by serial photographs of treatment sites. Histological observations were made on skin biopsies taken at frequent intervals ranging from 6 hours to 21 days post-treatment.

C57BL/KsJ db/+ mice [3] = settings: for hair growth on dorsum (photograph): 31 days post application
Experimental: The induction of hair loss following treatment with certain anticancer drugs, such as cyclophosphamide or doxorubicin, is well documented (A. Tierney & J. Taylor (1991) Nurs. Stand 5:29-31; R. R. Love, et al. (1989) Cancer 63:604-612; B. W. Cline (1984) Cancer Nurs. 7:221-228). The following experiment was performed to determine the effect of n-butyl cyanoacrylate on hair regrowth in mice pre-treated with cyclophosphamide or doxorubicin. Twenty mice of strain C57BL/KsJ db/+ were peritoneally injected with either cyclophosphamide in PBS (20 mg per kilogram of body weight) or Doxorubicin in PBS (2 mg per kilogram of body weight) for 10 consecutive days. Then a single 10 μl dose of n-butyl cyanoacrylate was applied topically to an area of the shaved dorsum of each animal. Control mice, which were injected with PBS alone, were treated similarly. The effects of hair regrowth were determined both by phototrichogram (macroscopic observation using photography) and by folliculogram (microscopic observation of histological changes in the treated and untreated skin).

[4] = system: skin of mice (C57BL/KsJ db/+ and C57BL/KsJ db/db); experiment: Hair growth in organ culture of treated skin (ex vivo); design: species or system mouse
Experimental: The shaved dorsal skin of mice (C57BL/KsJ db/+ and C57BL/KsJ db/db) was treated with n-butyl cyanoacrylate by a single topical application at a dose of 10 mg cm^2. One hour later, the skin (0.5×1.0 cm) containing both treated and untreated areas was excised, rinsed in PBS, cultured in Dulbecco's Modified Eagle Medium (Gibco BRL, Gaithersburg, Md.) supplemented with 10% fetal bovine serum (HyClone Laboratories, Logan, Utah) at an atmosphere of […] and 5% CO2, 37° C. Hair growth was recorded by macroscopy.

Which results are given for `C=C(C#N)C(=O)OCCCC` [n-butyl cyanoacrylate]?
activity of extract from skin harvested at 20 days post-treatment vs 10 days (NIH/3T3 fibroblasts): more active than the extract from skin harvested at 10 days post-treatment; activity of protein extracts of treated skin vs extract of untreated skin (NIH/3T3 fibroblasts; skin treated topically with 20 mg, harvested days 10 and 20): more active in stimulating proliferation of NIH/3T3 cells; activity of low molecular weight fraction (30 KDa or less) of skin extract (NIH/3T3 fibroblasts; treated and untreated skin): no discernible effect on cell proliferation; also recorded: filtration step removes stimulation; Hair growth [1]: 3+ (high hair regeneration with an area larger than 50% of the treated area); stimulation of hair growth at sites treated with n-butyl cyanoacrylate alone (C57BL/KsJ db/+ mice [2]): clearly evident; also recorded: new hair growth was present; time new hair remained (until sacrifice) (C57BL/KsJ db/+ mice [3]; animals pre-treated with cyclophosphamide, after treatment): ≥ 335 days; time of growing to full length (C57BL/KsJ db/+ mice [3]; mice pre-treated with cyclophosphamide, doxorubicin and PBS, post treatment): 15 to 18 days; beginning of hair regrowth in treated areas (C57BL/KsJ db/+ mice [3]; mice pre-treated with cyclophosphamide, doxorubicin and PBS, single 10 μl topical dose, post treatment): 8 to 11 days; hair growth on dorsum (photograph) (C57BL/KsJ db/+ mice [3]; pre-treated with cyclophosphamide): profound growth of new unpigmented gray hairs in the treated area; hair growth on dorsum (photograph) (C57BL/KsJ db/+ mice [3]; pre-treated with doxorubicin): profound growth of hair with normal pigmentation in the treated area; hair growth in organ culture (photograph) ([4]; 14 days in organ culture after treatment): hair growth is apparent in the treated area; time to which hair growth lasted (end of the experiment) ([4]; organ culture, post treatment): ≥ 25 days; time at which hair growth in the treated area was observed ([4]; organ culture, single topical application 10 mg cm^2 one hour before excision, post treatment): 7 to 12 days
